One may read the IC50 as the midpoint of a concentration-inhibition curve.

From US20160046618A1, “Cyclopropyl Fused Thiazin-2-Amine Compounds as Beta-Secretase Inhibitors and Methods of Use” (AMGEN INC., priority 2014, published 2016) come the findings set out here.

For assay [1], the system named is Aβ40 in conditioned medium of cells stably expressing Amyloid Precursor Protein (APP). Nature of the assay: In vitro BACE-1 cell-based assay (Aβ40 sandwich ELISA). The following applies: read-out: IC50 IP (μM) BACE1 cell. The method, boiled down: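 APP-expressing cells treated 24 h at 37 °C with compound in 10-point dose response (top 100 μM or 10 μM, 0.1% DMSO final). Secreted Aβ40 in conditioned medium quantified by sandwich ELISA (pAb40 capture, biotinylated 6E10 detection, time-resolved europium fluorescence); IC50 from percent inhibition versus concentration.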
On the technique in general: In an ELISA, binding on a coated surface is turned into a signal by an enzyme label.

Another assay deals with human recombinant BACE2 (Homo sapiens (Human), UniProt Q9Y5Z0). As to the kind of experiment: In vitro enzymatic BACE2 FRET assay. In kind it is biochemical. The following applies: read-out: IC50 IP (μM) BACE2 enzyme. The method, boiled down:
(§1)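 Protease purified by Ni-NTA chromatography; start with FRET substrate (50 nM); incubate 1 h; quench with Tris to neutral pH; read fluorescence ex 488 / em 590 nm.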

Another assay has as its target human recombinant BACE1 (Homo sapiens (Human), UniProt P56817). As to the kind of experiment: In vitro enzymatic BACE1 FRET assay. In kind it is biochemical. The following applies: read-out: IC50 IP (μM) BACE1 enzyme. The method, boiled down: as §1
In the next assay the target is Recombinant Cat D (Homo sapiens (Human), UniProt P07339). As to the kind of experiment: In vitro enzymatic Cathepsin D (Cat D) FRET assay. In kind it is biochemical. The following applies: read-out: IC50 IP (μM) CatD. The method, boiled down: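 CHO-expressed enzyme; buffer 0.05 M citrate pH 3.5, 5 mM CHAPS, 10% DMSO final. Start with FRET substrate 20 nM, 1 h incubation, Tris stop (pH to neutral), fluorescence ex 500 nm/em 580 nm.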
Chain of Recombinant Cat D (P07339 65-412): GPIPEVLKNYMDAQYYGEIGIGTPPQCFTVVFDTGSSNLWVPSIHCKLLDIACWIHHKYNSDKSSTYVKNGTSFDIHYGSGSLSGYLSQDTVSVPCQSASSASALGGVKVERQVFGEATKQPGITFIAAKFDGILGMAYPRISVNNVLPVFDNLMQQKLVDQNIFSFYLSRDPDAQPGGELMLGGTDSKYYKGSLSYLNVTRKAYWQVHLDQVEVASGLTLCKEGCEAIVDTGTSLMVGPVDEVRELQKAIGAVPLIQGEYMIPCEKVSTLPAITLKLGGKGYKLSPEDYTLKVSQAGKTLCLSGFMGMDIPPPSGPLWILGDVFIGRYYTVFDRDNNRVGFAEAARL

Chain of human recombinant BACE1 (P56817 46-501): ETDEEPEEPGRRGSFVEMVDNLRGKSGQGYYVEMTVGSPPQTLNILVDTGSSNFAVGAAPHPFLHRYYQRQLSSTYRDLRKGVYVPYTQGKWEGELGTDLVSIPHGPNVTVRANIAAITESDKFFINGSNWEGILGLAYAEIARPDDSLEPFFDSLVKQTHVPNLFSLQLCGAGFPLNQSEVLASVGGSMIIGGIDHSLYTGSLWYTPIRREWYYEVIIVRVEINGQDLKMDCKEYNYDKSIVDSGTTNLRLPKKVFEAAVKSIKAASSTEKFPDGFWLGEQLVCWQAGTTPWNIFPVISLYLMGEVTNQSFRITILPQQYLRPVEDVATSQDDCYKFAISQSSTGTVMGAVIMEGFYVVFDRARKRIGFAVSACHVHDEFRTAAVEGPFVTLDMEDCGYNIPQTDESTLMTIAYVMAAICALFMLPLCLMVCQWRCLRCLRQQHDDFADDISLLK
Chain of human recombinant BACE2 (Q9Y5Z0 63-518): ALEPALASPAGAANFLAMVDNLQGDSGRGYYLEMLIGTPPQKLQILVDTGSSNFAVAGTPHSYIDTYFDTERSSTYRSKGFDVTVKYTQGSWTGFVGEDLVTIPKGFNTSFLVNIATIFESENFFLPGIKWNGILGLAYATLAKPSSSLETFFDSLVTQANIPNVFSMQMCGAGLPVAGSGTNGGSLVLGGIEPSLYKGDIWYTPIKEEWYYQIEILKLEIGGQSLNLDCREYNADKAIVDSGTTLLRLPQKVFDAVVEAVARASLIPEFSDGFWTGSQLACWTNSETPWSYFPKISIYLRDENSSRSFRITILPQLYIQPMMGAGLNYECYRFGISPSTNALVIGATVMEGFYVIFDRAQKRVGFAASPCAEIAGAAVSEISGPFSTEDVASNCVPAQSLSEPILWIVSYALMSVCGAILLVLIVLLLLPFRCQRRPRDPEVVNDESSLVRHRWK

In the case of `C[C@]1(c2cc(Nc3nccc4nc(OCCN5CCCC5=O)cnc34)cc(F)c2F)N=C(N)S[C@@]2(C(F)F)C[C@@H]12` [Example 893, 1-(2-((5-((3-((1S,5S,6S)-3-amino-1-(difluoromethyl)-5-methyl-2-thia-4-azabicyclo[4.1.0]hept-3-en-5-yl)-4,5-difluorophenyl)amino)pyrido[3,4-b]pyrazin-2-yl)oxy)ethyl)-2-pyrrolidinone], the IC50 in assay [1] amounted to 1.66 µM; at human recombinant BACE2 it was 3.86 µM; on human recombinant BACE1, 0.149 µM; at Recombinant Cat D it was 518 µM.

For `COC[C@H](C)Oc1cnc2c(Nc3cc(F)c(F)c([C@@]4(C)N=C(N)S[C@@]5(C(F)F)C[C@@H]45)c3)nccc2n1` [Example 894, N-(3-((1S,5S,6S)-3-amino-1-(difluoromethyl)-5-methyl-2-thia-4-azabicyclo[4.1.0]hept-3-en-5-yl)-4,5-difluorophenyl)-2-((1S)-2-methoxy-1-methylethoxy)pyrido[3,4-b]pyrazin-5-amine], the 50% inhibitory concentration (IC50) in assay [1] is 0.05 µM; at human recombinant BACE2, 0.464 µM; on human recombinant BACE1, 0.00372 µM; at Recombinant Cat D, over 133 µM.

Take `COc1cnc2c(Nc3cc(F)c(F)c([C@@]4(C)N=C(N)S[C@@]5(C(F)F)C[C@@H]45)c3)nccc2n1` [Example 895, N-(3-((1S,5S,6S)-3-amino-1-(difluoromethyl)-5-methyl-2-thia-4-azabicyclo[4.1.0]hept-3-en-5-yl)-4,5-difluorophenyl)-2-methoxypyrido[3,4-b]pyrazin-5-amine]: the concentration for half-maximal inhibition (IC50) was 0.113 µM in assay [1], 0.0254 µM on human recombinant BACE2, 0.0053 µM at human recombinant BACE1 and 167 µM on Recombinant Cat D.

As for `C[C@]1(c2cc(Nc3nccc4[nH]c(=O)cnc34)cc(F)c2F)N=C(N)S[C@@]2(C(F)F)C[C@@H]12` [Example 896, 5-((3-((1S,5S,6S)-3-amino-1-(difluoromethyl)-5-methyl-2-thia-4-azabicyclo[4.1.0]hept-3-en-5-yl)-4,5-difluorophenyl)amino)pyrido[3,4-b]pyrazin-2(1H)-one], the IC50 in assay [1] turned out to be 0.135 µM; on human recombinant BACE2, 0.0223 µM; on human recombinant BACE1, 0.018 µM; at Recombinant Cat D it was 128 µM.

Regarding `COc1cnc2c(Nc3cc(F)c(F)c([C@@]4(C)N=C(N)S[C@H]5C[C@H]54)c3)ncnc2c1` [Example 897, N-(3-((1S,5S,6S)-3-amino-5-methyl-2-thia-4-azabicyclo[4.1.0]hept-3-en-5-yl)-4,5-difluorophenyl)-7-methoxypyrido[3,2-d]pyrimidin-4-amine], the IC50 in assay [1] was 0.038 µM; on human recombinant BACE2 it was 0.184 µM; at human recombinant BACE1, 0.035 µM; on Recombinant Cat D, 1440 µM.

In the case of `COC(=O)[C@]12C[C@H]1[C@@](C)(c1cc(NC(=O)c3ccc(Cl)cn3)cc(F)c1F)N=C(N)S2` [Example 898, (1S,5S,6S)-methyl 3-amino-5-(5-(5-chloropicolinamido)-2,3-difluorophenyl)-5-methyl-2-thia-4-azabicyclo[4.1.0]hept-3-ene-1-carboxylate], the IC50 in assay [1] is 0.111 µM; on human recombinant BACE2 it was 0.00268 µM; on human recombinant BACE1, 0.00454 µM; on Recombinant Cat D, 673 µM.

On to `COc1cnc2c(Nc3cc(F)c(F)c([C@@]4(C)N=C(N)S[C@H]5C[C@H]54)c3)nccc2n1` [Example 900, N-(3-((1S,5S,6S)-3-amino-5-methyl-2-thia-4-azabicyclo[4.1.0]hept-3-en-5-yl)-4,5-difluorophenyl)-2-methoxypyrido[3,4-b]pyrazin-5-amine], for which the concentration for half-maximal inhibition (IC50) in assay [1] worked out at 0.195 µM; at human recombinant BACE2, 0.0972 µM; at human recombinant BACE1 it was 0.0324 µM; at Recombinant Cat D it was 559 µM.

As to `CON(C)C(=O)[C@]12C[C@H]1[C@@](C)(c1cc(Nc3ncnc4cc(Cl)cnc34)cc(F)c1F)N=C(N)S2` [Example 901, (1S,5S,6S)-3-amino-5-(5-((7-chloropyrido[3,2-d]pyrimidin-4-yl)amino)-2,3-difluorophenyl)-N-methoxy-N,5-dimethyl-2-thia-4-azabicyclo[4.1.0]hept-3-ene-1-carboxamide], the half-inhibitory concentration (IC50) was found to be 0.0167 µM in assay [1], 0.00203 µM at human recombinant BACE2, 0.00192 µM on human recombinant BACE1 and 603 µM on Recombinant Cat D.

On to `CC(=O)[C@]12C[C@H]1[C@@](C)(c1cc(Nc3ncnc4cc(Cl)cnc34)cc(F)c1F)N=C(N)S2` [Example 902, 1-((1S,5S,6S)-3-amino-5-(5-((7-chloropyrido[3,2-d]pyrimidin-4-yl)amino)-2,3-difluorophenyl)-5-methyl-2-thia-4-azabicyclo[4.1.0]hept-3-en-1-yl)ethanone], for which the 50% inhibitory concentration (IC50) in assay [1] was 0.0796 µM; at human recombinant BACE2, 0.0125 µM; on human recombinant BACE1 it was 0.0148 µM; on Recombinant Cat D it was 479 µM.

Turning to `CC#CCOc1cnc2c(Nc3cc(F)c(F)c([C@@]4(C)N=C(N)S[C@@]5(COC)C[C@H]54)c3)nccc2c1` [Example 903, N-(3-((1S,5S,6S)-3-amino-1-(methoxymethyl)-5-methyl-2-thia-4-azabicyclo[4.1.0]hept-3-en-5-yl)-4,5-difluorophenyl)-3-(2-butyn-1-yloxy)-1,7-naphthyridin-8-amine], the half-maximal inhibitory concentration (IC50) in assay [1] was determined as 0.00785 µM; on human recombinant BACE2, 0.109 µM; at human recombinant BACE1, 0.00195 µM; on Recombinant Cat D it was 1220 µM.

`CC(=O)[C@]12C[C@H]1[C@@](C)(c1cc(Nc3ncnc4cc(C#N)cnc34)cc(F)c1F)N=C(N)S2` [Example 904, 4-((3-((1S,5S,6S)-1-acetyl-3-amino-5-methyl-2-thia-4-azabicyclo[4.1.0]hept-3-en-5-yl)-4,5-difluorophenyl)amino)pyrido[3,2-d]pyrimidine-7-carbonitrile]: the IC50 in assay [1] is 0.0132 µM; at human recombinant BACE2, 0.0355 µM; at human recombinant BACE1, 0.0141 µM; at Recombinant Cat D, 380 µM.

For the compound `CC(=O)[C@]12C[C@H]1[C@@](C)(c1cc(NC(=O)c3ccc(Cl)cn3)cc(F)c1F)N=C(N)S2` [Example 906, N-(3-((1S,5S,6S)-1-acetyl-3-amino-5-methyl-2-thia-4-azabicyclo[4.1.0]hept-3-en-5-yl)-4,5-difluorophenyl)-5-chloro-2-pyridinecarboxamide], the IC50 was found to be 0.014 µM in assay [1], 0.00174 µM on human recombinant BACE2, 0.00404 µM at human recombinant BACE1 and 693 µM at Recombinant Cat D.

As for `C[C@H](O)[C@]12C[C@H]1[C@@](C)(c1cc(Nc3ncnc4cc(C#N)cnc34)cc(F)c1F)N=C(N)S2` [Example 907, 4-((3-((1S,5S,6S)-3-amino-1-(1-hydroxyethyl)-5-methyl-2-thia-4-azabicyclo[4.1.0]hept-3-en-5-yl)-4,5-difluorophenyl)amino)pyrido[3,2-d]pyrimidine-7-carbonitrile], the IC50 stood at 0.00413 µM in assay [1], 0.0102 µM on human recombinant BACE2, 0.00747 µM at human recombinant BACE1 and 381 µM on Recombinant Cat D.

Turning to `C[C@@H](O)[C@]12C[C@H]1[C@@](C)(c1cc(Nc3ncnc4cc(C#N)cnc34)cc(F)c1F)N=C(N)S2` [Example 908], the half-maximal inhibitory concentration (IC50) in assay [1] was 0.00812 µM; on human recombinant BACE2 it was 0.0255 µM; at human recombinant BACE1, 0.00801 µM; at Recombinant Cat D, 360 µM.

For the compound `CC(C)(O)[C@]12C[C@H]1[C@@](C)(c1cc(Nc3ncnc4cc(C#N)cnc34)cc(F)c1F)N=C(N)S2` [Example 909, 4-((3-((1S,5S,6S)-3-amino-1-(1-hydroxy-1-methylethyl)-5-methyl-2-thia-4-azabicyclo[4.1.0]hept-3-en-5-yl)-4,5-difluorophenyl)amino)pyrido[3,2-d]pyrimidine-7-carbonitrile], the half-inhibitory concentration (IC50) in assay [1] turned out to be 0.0144 µM; on human recombinant BACE2 it was 0.183 µM; at human recombinant BACE1, 0.0257 µM; on Recombinant Cat D, 6.84 µM.

Consider `C#CCOc1cnc2c(Nc3cc(F)c(F)c([C@@]4(C)N=C(N)S[C@@]5(C(=O)N(C)C)C[C@H]54)c3)nccc2n1` [Example 912, (1S,5S,6S)-3-amino-5-(2,3-difluoro-5-((2-(2-propyn-1-yloxy)pyrido[3,4-b]pyrazin-5-yl)amino)phenyl)-N,N,5-trimethyl-2-thia-4-azabicyclo[4.1.0]hept-3-ene-1-carboxamide], for which the concentration for half-maximal inhibition (IC50) in assay [1] is 0.000795 µM; at human recombinant BACE2, 0.00101 µM; at human recombinant BACE1, 0.000467 µM; on Recombinant Cat D, over 400 µM.

As for `C#CCOc1cnc(C(=O)Nc2cc(F)c(F)c([C@@]3(C)N=C(N)S[C@@]4(C(=O)NC)C[C@H]43)c2)cn1` [Example 914, (1S,5S,6S)-3-amino-5-(2,3-difluoro-5-(((5-(2-propyn-1-yloxy)-2-pyrazinyl)carbonyl)amino)phenyl)-N,5-dimethyl-2-thia-4-azabicyclo[4.1.0]hept-3-ene-1-carboxamide], the concentration for half-maximal inhibition (IC50) stood at 0.000534 µM in assay [1], 0.0108 µM at human recombinant BACE2, 0.000464 µM at human recombinant BACE1 and 79.4 µM at Recombinant Cat D.

For the compound `C#CCOc1cnc2c(Nc3cc(F)c(F)c([C@@]4(C)N=C(N)S[C@@]5(C#N)C[C@H]54)c3)nccc2n1` [Example 916, (1S,5S,6S)-3-amino-5-(2,3-difluoro-5-((2-(2-propyn-1-yloxy)pyrido[3,4-b]pyrazin-5-yl)amino)phenyl)-5-methyl-2-thia-4-azabicyclo[4.1.0]hept-3-ene-1-carbonitrile], the IC50 was found to be 0.00974 µM in assay [1], 0.00399 µM on human recombinant BACE2, 0.000515 µM at human recombinant BACE1 and 84.2 µM at Recombinant Cat D.
